Source: patent publication US7718641B2, “Pyrrolo [3,4-H] isoquinoline compounds and methods for modulating gated ion channels” (Aros Pharma ApS, priority 2005, dated 2010)

Legend:
homomeric hASIC1a = molecular target: T1, homomeric hASIC1a (Homo sapiens, UniProt P78348); assay: Two-electrode voltage clamp in Xenopus laevis oocytes expressing homomeric hASIC1a; format: cell-based; details: 30 μM, OpusExpress
T1 construct: expressed in transfected cells; host or cells: Xenopus laevis oocytes (nuclear cDNA microinjection)
T1 sequence (P78348 1-528): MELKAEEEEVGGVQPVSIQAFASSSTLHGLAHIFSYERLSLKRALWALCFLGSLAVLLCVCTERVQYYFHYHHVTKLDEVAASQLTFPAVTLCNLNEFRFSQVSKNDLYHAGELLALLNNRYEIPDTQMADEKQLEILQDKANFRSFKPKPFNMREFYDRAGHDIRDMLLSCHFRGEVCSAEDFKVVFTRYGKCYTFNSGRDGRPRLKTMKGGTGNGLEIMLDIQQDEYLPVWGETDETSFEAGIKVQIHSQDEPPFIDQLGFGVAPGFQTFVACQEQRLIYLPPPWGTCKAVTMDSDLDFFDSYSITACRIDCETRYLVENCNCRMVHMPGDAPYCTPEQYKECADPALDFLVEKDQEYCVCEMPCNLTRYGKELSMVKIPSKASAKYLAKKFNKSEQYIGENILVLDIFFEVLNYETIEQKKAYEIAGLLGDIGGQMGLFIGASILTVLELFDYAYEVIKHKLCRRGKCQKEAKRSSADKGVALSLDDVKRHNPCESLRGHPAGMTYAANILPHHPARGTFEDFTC
Protocol: Two-electrode voltage clamp electrophysiological assays in Xenopus laevis oocytes expressing gated ion channels are performed as follows:
Oocytes are surgically removed from adult Xenopus laevis and treated for 2 h at room temperature with 1 mg/ml type I collagenase (Sigma) in Barth's solution under mild agitation. Selected oocytes at stage IV-V are defolliculated manually before nuclear microinjection of 2.5-5 ng of a suitable expression vector, such as pcDNA3, comprising the nucleotide sequence encoding a gated ion channel subunit protein. In such an experiment, the oocytes express homomultimeric proton-gated ion channels on their surface. In an alternate experiment, one, two, three or more vectors comprising the coding sequences for distinct gated ion channel subunits are co-injected in the oocyte nuclei. […] After 2-4 days of expression at 19° C. in Barth's solution containing […] gentamicin and 1.8 mM CaCl2, gated ion channels are activated by applying an acidic solution (pH <7) and currents are recorded in a two electrode voltage-clamp configuration, using an OC-725B amplifier (Warner Instruments). Currents are acquired and digitized at 500 Hz on an Apple Imac G3 computer with an A/D NB-MIO-16XL interface (National Instruments) and recorded traces are post-filtered at 100 Hz in Axograph (Axon Instruments) (Neher, E. and Sakmann, B. (1976) Nature 260:799-802). […]

[1] = Plasma level after administration in the formalin experiments; format: in vivo; details: plasma level 1.5 h after compound administration, i.p., rat
[2] = test system: CFA-induced thermal hyperalgesia; assay: CFA model, thermal hyperalgesia (Hargreaves plantar test); format: in vivo, rat; details: CFA 48 h prior
Protocol: Assessment of thermal hyperalgesia: Baseline and post-treatment withdrawal latencies to a noxious thermal stimulus were measured according to Hargreaves (Hargreaves et al., 1988) using a plantar test analgesia meter (IITC, Woodland Hills, Calif., model # 336). The stimulus intensity was set at 30% of maximum output and the cut-off time was set at 30 seconds. Rats were placed on a glass plate warmed to 28° C. and allowed to habituate to the testing chambers for a minimum of 15 minutes prior to each testing session. The thermal stimulus was applied to the plantar surface of the paw, and the mean latency of three readings on each paw was used as the latency value for each time point. Thermal thresholds were defined as the latency in seconds to the first pain behavior, which includes nocifensive paw withdrawal, flinching, biting and/or licking of the stimulated paw. The mean and standard error of the mean (SEM) were determined for the injured and normal paws for each treatment group.
For comparison, results with morphine (6 mg/kg sc) and indomethacin (30 mg/kg po) are shown. […] Data are expressed as mean±SEM, (n=10). **P<0.01, vs. baseline.

In the case of `COc1ccc(F)cc1-c1cc2c(c3c1CCN(C)C3)NC(=O)/C2=N/O` [Compound A, 5-(5-fluoro-2-methoxyphenyl)-6,7,8,9-tetrahydro-3-(hydroxyimino)-8-methyl-1H-pyrrolo[3,2-h]isoquinoline-2(3H)-one], the “effect on inward currents elicited by pH 6.5, homomeric hASIC1a” value (homomeric hASIC1a) is reported as “effectively modulates the activity”, the “relationship between dose and plasma level” value [1] is reported as “linear relationship between dose and plasma exposure” and the “reversal of CFA-induced thermal hyperalgesia” value ([2]; 3 h after i.p. administration, dose-dependent) is reported as “fully reversing the thermal hyperalgesia”. The ED50 ([2]; Rattus norvegicus, ip, measured 3 h after i.p. administration, n=10, read-out: ED50, reversal of CFA-induced thermal hyperalgesia) was 6.5 mg/kg.
